Measured values: article PMC6078345, “Location and functions of Inebriated in the Drosophila eye” (Biology Open, 2018)

Target: T1, Ine-P1 (Inebriated long isoform; Ine-P1::GFP, Ine-P1-EGFP) (Drosophila melanogaster, UniProt Q9VR07)
T1 construct: full-length long isoform, GFP/EGFP fusion, cRNA in Xenopus laevis oocytes; 943 aa
T1 sequence (Q9VR07 1-943): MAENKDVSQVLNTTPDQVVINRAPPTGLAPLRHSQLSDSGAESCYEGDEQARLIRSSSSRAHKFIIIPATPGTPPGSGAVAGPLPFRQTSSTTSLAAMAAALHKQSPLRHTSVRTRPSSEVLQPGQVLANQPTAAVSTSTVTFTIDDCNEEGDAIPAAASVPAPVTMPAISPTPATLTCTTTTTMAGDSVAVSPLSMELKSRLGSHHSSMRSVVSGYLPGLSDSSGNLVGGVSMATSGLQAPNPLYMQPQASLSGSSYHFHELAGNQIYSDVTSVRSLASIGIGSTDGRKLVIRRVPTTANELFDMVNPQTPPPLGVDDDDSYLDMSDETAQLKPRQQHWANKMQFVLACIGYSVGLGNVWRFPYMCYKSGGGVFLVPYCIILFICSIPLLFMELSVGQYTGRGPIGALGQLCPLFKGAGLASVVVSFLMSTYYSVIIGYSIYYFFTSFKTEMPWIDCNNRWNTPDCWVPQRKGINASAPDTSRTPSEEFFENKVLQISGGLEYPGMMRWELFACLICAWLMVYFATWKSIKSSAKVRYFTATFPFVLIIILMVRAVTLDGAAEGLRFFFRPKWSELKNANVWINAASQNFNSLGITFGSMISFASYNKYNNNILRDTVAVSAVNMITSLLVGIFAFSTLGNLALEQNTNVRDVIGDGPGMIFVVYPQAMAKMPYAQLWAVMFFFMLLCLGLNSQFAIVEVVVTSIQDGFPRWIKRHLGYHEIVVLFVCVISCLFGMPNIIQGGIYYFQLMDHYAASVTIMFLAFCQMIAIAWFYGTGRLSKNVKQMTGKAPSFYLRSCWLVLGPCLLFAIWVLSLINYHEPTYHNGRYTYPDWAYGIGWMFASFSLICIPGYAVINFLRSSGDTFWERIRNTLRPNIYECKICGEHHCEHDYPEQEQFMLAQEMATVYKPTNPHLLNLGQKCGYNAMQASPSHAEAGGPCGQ
Test: voltage-clamp current in Xenopus oocytes
Assay type: cell-based
Settings: normal frog Ringer, -100 mV; dose-dependent current, 7 to 100 mM; few oocytes; transport only suggested

NCC(=O)O [glycine]
voltage-clamp current in Xenopus oocytes: glycine on Ine-P1-EGFP transfected oocytes revealed an obvious dose-dependent signal
